In PMC7570921, “Cathepsin B-Cleavable Cyclopeptidic Chemotherapeutic Prodrugs” (Molecules, 2020):
Starred links: 1 amine or outer side, 2 acyl side, 3 side chain; linkers in the order of their positions; H or OH if unused. Residues, ends and D or L forms follow the SMILES beside them. *: point of attachment. Doxorubicin(3'-N) = COc1cccc2c1C(=O)c1c(O)c3c(c(O)c1C2=O)C[C@@](O)(C(=O)CO)C[C@@H]3O[C@H]1C[C@H](N*)[C@H](O)[C@H](C)O1; DBCO = C1#Cc2ccccc2N(*)Cc2ccccc21; Suc = O=C(CCC(=O)[*:2])[*:1]

Key:
[1] = tested on: HT1080 human fibrosarcoma cells; experiment: WST-1 cell proliferation / cytotoxicity assay; format: cell-based; conditions: for Cytotoxicity (in words) / Survival Rate (SR): HT1080, 72 h; for Cytotoxicity (in words): WST-1, 5-50 μM DOX eq (Figure S14), n = 3
Procedure: Human fibrosarcoma cell line HT1080 (ATCC® CCL-121™, Manassas, VA, USA) was grown as monolayers in DMEM (1x) + GlutaMAX™-1 medium supplemented with 10% fetal calf serum and […] streptomycin and 100 IU/mL penicillin. Cells were cultivated at 37 °C in humidified 95% air and 5% CO2 atmosphere and routinely maintained by serial passage in a new medium. Prior to experiments, cells were tested for mycoplasma contamination with the MycoAlert™ kit.
Cells were seeded at a density of 8000 cells/well in a 96-well plate (clear-bottom black plate, 3603, Corning, Luzern, Switzerland) one day prior to the experiment. […] Cell proliferation assays were performed at 72 h upon incubation using a Cell Proliferation reagent (WST-1) following the manufacturer’s recommendations. The absorption was measured at 450 nm with a plate reader (Safire). The percentage of cell survival was calculated with respect to control samples treated with either medium or a solution of DMSO (50%) in serum-free medium, as follows: [A (test-conc.) − A (100% dead)/A (100% viable) − A (100% dead)] × 100. Mean values from three wells were determined and expressed as ± S.D. All assays were done in triplicates.

HT1080 cells [2] = experiment: Confocal fluorescence microscopy, co-localization (PCC) of DOX fluorescence; format: cell-based, human; conditions: 24 h incubation, 0.3 μM free DOX; mean ± SD of three images
Procedure: HT1080 cells were seeded one day before the experiment at a density of 78,500 cells in 1.3 mL of complete medium into a glass-bottom microwell dish (35 mm petri dish, 14 mm microwell, MatTek Corporation). […] Control cells were incubated in serum-free medium under the same experimental conditions. Cells were then washed with DPBS and incubated for 20 min with 1 μg/mL Hoechst 33,342 stain and 70 nM of LysoTracker® Green DND-26. Prior to imaging, cells were washed with DPBS and serum-free medium was put into every dish. Fluorescence imaging was carried our using a Zeiss LSM780 (Zeiss, Jena, Germany) inverted confocal microscope. The microscopic images were using 405 and 488 nm lasers as excitation wavelengths, 495–525, 575–625 and 415–492 nm emission filters, and an objective lens, Plan-Aprochromat 63 x/1.4 oil DIC M27. During the image acquisition time, slides were kept at 37 °C in a humidified chamber (INUBTF-WSKM-F1, Tokai Hit, Japan). ZEN 2 software (Zeiss, Jena, Germany) was used for image processing. […] […] PCC was calculated in regions of interest (ROI), separately defined for each image by masking the entire dataset with the red channel (DOX fluorescence). The value of PCC for each experiment is presented as mean ± S.D. calculated from three separate images.

HT1080 cells [3] = experiment: Flow cytometry of intracellular and nuclear DOX accumulation; format: cell-based, human; conditions: 24 h, 0.3 μM (DOX eq), isolated nuclei, triplicates
Procedure: (§1) HT1080 cells were seeded in 6-well plates (flat-bottom cell culture microplate, 3505, Corning, Luzern, Switzerland) at a density of 150,000 cells/well and were left to attach overnight. […] Cells were incubated for 24, 48 and 72 h in the dark at 37 °C. Cells were washed 3 times with DPBS, detached from the surface with a cell-scraper and resuspended in 500 μL of DPBS. Cells were analyzed immediately on a BD LSR Fortessa cell analyzer (BD Biosciences, San Jose, CA, USA). […] For this purpose, 1 mM Tris buffer was prepared and the pH was adapted to 7.6 with 30% HCl. Igepal CA-630 and Hoechst 3342 (5 μg/mL final concentration) were added, and the reagent was filtered. […] Samples were incubated at 4 °C for 1 h and analyzed with a BDLSR Fortessa cell analyzer. Acquisition data were analyzed using FlowJo V10 software (FLOWJO, LCC, Ashland, OR, USA). For cell cycle analysis, the Dean-Jett-Fox model was used. All measurements were done in triplicates. Mean values and S.D. were calculated and plotted for each tested compound. Fluorescence of control cells incubated in serum-free medium was subtracted from acquired DOX-emitted fluorescence.

HT1080 cells [4] = experiment: Cell cycle analysis by flow cytometry (Hoechst 33342, Dean-Jett-Fox model); format: cell-based, human
Procedure: as §1, with “compound.” for “compound. Fluorescence of control cells incubated in serum-free medium was subtracted from acquired DOX-emitted fluorescence.”

[5] = 24 h, 0.3 μM (DOX eq), mean ± S.D., n = 3
[6] = 48 hours, equimolar concentration (DOX eq)
[7] = 72 hours, equimolar concentration (DOX eq)

## PEG10-GAGRRAAG-DOX
[1]
  Cytotoxicity (in words): no cytotoxicity

## COc1cccc2c1C(=O)c1c(O)c3c(c(O)c1C2=O)C[C@@](O)(C(=O)CO)C[C@@H]3O[C@H]1C[C@H](N)[C@H](O)[C@H](C)O1.Cl [DOX, Doxorubicin hydrochloride salt]
HT1080 cells [2]
  PCC between DOX and Hoechst 33342: 0.41 ± 0.10
[1]; WST-1, [Dox] 0.01 mM as printed, SD 9.7 wrapped
  Survival Rate (SR): 86.4%
[1]; WST-1, [Dox] 0.05 mM as printed, SD 10.6 wrapped
  Survival Rate (SR): 81.7%
[1]; WST-1, [Dox] 0.10 mM as printed, SD 9.7 wrapped
  Survival Rate (SR): 69.9%
[1]; WST-1, [Dox] 0.15 mM as printed, SD 7.3 wrapped
  Survival Rate (SR): 53.7%
[1]; WST-1, [Dox] 0.2 mM as printed, SD 4.7 wrapped
  Survival Rate (SR): 34.6%
[1]; WST-1, [Dox] 0.4 mM as printed, SD 1.3 wrapped
  Survival Rate (SR): 6.9%
[1]; WST-1, [Dox] 0.5 mM as printed, SD 0.4 wrapped
  Survival Rate (SR): 1.3%
[1]; WST-1, [Dox] 0.6 mM as printed, SD 0.5 wrapped
  Survival Rate (SR): 0.4%
[1]; WST-1, [Dox] 0.8 mM as printed, SD 0.7 wrapped
  Survival Rate (SR): 0%
[1]; WST-1, [Dox] 1.0 mM as printed, SD 0.5 wrapped
  Survival Rate (SR): 0.4%
[1]; HT1080, 72 h incubation, WST-1, free DOX (data not shown)
  IC50: 160 nM
HT1080 cells [3]
  DOX accumulation in the nucleus: significant DOX accumulation in the nucleus
HT1080 cells [4]; [5]
  % G1: 30.4 ± 2.3%
  % S: 36.7 ± 11.9%
HT1080 cells [4]; [6]
  % G1: 29.2 ± 1.5%
  % G2: 33.6 ± 5.7%
  % S: 32.3 ± 4.4%
HT1080 cells [4]; [7]
  % G1: 32.6 ± 3.2%
  % G2: 27.3 ± 8.1%
  % S: 35.8 ± 6.7%

## COc1cccc2c1C(=O)c1c(O)c3c(c(O)c1C2=O)C[C@@](O)(C(=O)CO)C[C@@H]3O[C@H]1C[C@H](NC(=O)CNC(=O)[C@H](C)NC(=O)[C@H](C)NC(=O)[C@H](CCCNC(=N)N)NC(=O)[C@H](CCCNC(=N)N)NC(=O)CNC(=O)[C@H](C)NC(=O)CNC(=O)CCC(=O)N2Cc3ccccc3C#Cc3ccccc32)[C@H](O)[C@H](C)O1 ({DBCO-Suc}-GAGRRAAG-{Doxorubicin(3'-N)})
[1]
  Cytotoxicity (in words): significant cytotoxicity
